From US20200095192A1, “BIODEGRADABLE DIETHANOLAMINE DERIVATIVE CHELATING AGENT AND PREPARATION PROCESS THEREOF” (PTT Global Chemical Public Company Limited, priority 2017, published 2020)
Values belong to the molecule of their own block, whether it stands above or below them.

How the values were obtained:
[1] = calcium chelation value of crude ligand; format: physicochemical; parameters: unit not given here
Description: (§1) The diethanolamine derivatives and maleic anhydride can be synthesized by the reaction according to equation (I). The diethanolamine precursor, maleic anhydride, and selected catalyst were added into about 15-20 mL of dichloromethane solvent, wherein the amounts of each compounds were shown in table 1. Then, the obtained mixture was refluxed at the temperature of 50° C. until the reaction was completed. The amount of precursors being used was monitored. The solvent was removed from the obtained product. The obtained product was dissolved in 50 mL of distilled water and washed with dichloromethane for at least 3 times (30 mL each). After being washed, the obtained product was dried under vacuum and analyzed for its property using ^1H NMR spectroscopy and liquid chromatography mass spectrometry (LC/MS) technique.
as §1, with “succinic” for “maleic”, “(II).” for “(I).”, “3.” for “1.”, “in” for “in 50 mL of”, “water (50 mL)” for “water”
as §1, with “and succinic” for “and maleic”, “equation (III).” for “equation (I).”, “precursor, phthalic” for “precursor, maleic”, “table 5.” for “table 1.”, “in” for “in 50 mL of”, “water (50 mL)” for “water”

[2] = stability constant by complex titration; format: physicochemical; conditions: synthesized chelating agent
Description: The analysis of stability constant between the synthesized chelating agent and metal ions can be performed by complex titration wherein the stability constant of the synthesized chelating agent and metal ions comparing to the previous disclosed degradable chelating agent can be performed according to table 7.

[3] = crude of ligand 1-1 to ligand 1-11 without purification
[4] = crude of ligand 2-1 to ligand 2-9 without purification
[5] = crude of ligand 3-1 to ligand 3-7 without purification

SMILES: O=C(O)/C=C/C(=O)OCCN(CCOC(=O)/C=C/C(=O)O)C(=O)/C=C/C(=O)O [ligand 1-1]
calcium chelation value [1, 3]: 4

SMILES: O=C(O)/C=C/C(=O)OCCN(CCOC(=O)/C=C/C(=O)O)C(=O)/C=C/C(=O)O [ligand 1-2]
calcium chelation value [1, 3]: 15

SMILES: O=C(O)/C=C/C(=O)OCCN(CCOC(=O)/C=C/C(=O)O)C(=O)/C=C/C(=O)O [ligand 1-3]
calcium chelation value [1, 3]: 13

SMILES: O=C(O)/C=C/C(=O)OCCN(CCOC(=O)/C=C/C(=O)O)C(=O)/C=C/C(=O)O [ligand 1-4]
calcium chelation value [1, 3]: 9

SMILES: O=C(O)/C=C/C(=O)OCCN(CCOC(=O)/C=C/C(=O)O)C(=O)/C=C/C(=O)O [ligand 1-5]
calcium chelation value [1, 3]: 3

SMILES: O=C(O)/C=C/C(=O)OCCN(CCOC(=O)/C=C/C(=O)O)C(=O)/C=C/C(=O)O [ligand 1-7]
calcium chelation value [1, 3]: 46

SMILES: O=C(O)/C=C/C(=O)OCCN(CCOC(=O)/C=C/C(=O)O)C(=O)/C=C/C(=O)O [ligand 1-8]
calcium chelation value [1, 3]: 58

SMILES: O=C(O)/C=C/C(=O)OCCN(CCOC(=O)/C=C/C(=O)O)C(=O)/C=C/C(=O)O [ligand 1-9]
calcium chelation value [1, 3]: 83

SMILES: O=C(O)/C=C/C(=O)OCCN(CCOC(=O)/C=C/C(=O)O)C(=O)/C=C/C(=O)O [ligand 1-10]
calcium chelation value [1, 3]: 62

SMILES: O=C(O)/C=C/C(=O)OCCN(CCOC(=O)/C=C/C(=O)O)C(=O)/C=C/C(=O)O [ligand 1-11]
calcium chelation value [1, 3]: 60

SMILES: O=C(O)/C=C/C(=O)OCCN(CCOC(=O)/C=C/C(=O)O)C(=O)/C=C/C(=O)O [ligand 1]
stability constant ([2]; aluminium (Al^3+)): 10.7
stability constant ([2]; barium (Ba^2+)): 7.8
stability constant ([2]; cadmium (Cd^2+)): 8.5
stability constant ([2]; calcium (Ca^2+)): 9.3
stability constant ([2]; cobolt (Co^2+)): 10.4
stability constant ([2]; copper (Cu2+)): 12.8
stability constant ([2]; iron (Fe^2+)): 14.8
stability constant ([2]; iron (Fe^3+)): 9.5
stability constant ([2]; magnesium (Mg^2+)): 8.3
stability constant ([2]; manganese (Mn^2+)): 10.4
stability constant ([2]; mercury (Hg^2+)): 7.8
stability constant ([2]; nickel (Ni^2+)): 5.0
stability constant ([2]; strontium (Sr^2+)): 7.7
stability constant ([2]; tin (Pb^2+)): 11.4
stability constant ([2]; zinc (Zn^2+)): 9.0

SMILES: O=C(O)CCC(=O)OCCN(CCOC(=O)CCC(=O)O)C(=O)CCC(=O)O [ligand 2-1]
calcium chelation value [1, 4]: 5

SMILES: O=C(O)CCC(=O)OCCN(CCOC(=O)CCC(=O)O)C(=O)CCC(=O)O [ligand 2-2]
calcium chelation value [1, 4]: 8

SMILES: O=C(O)CCC(=O)OCCN(CCOC(=O)CCC(=O)O)C(=O)CCC(=O)O [ligand 2-3]
calcium chelation value [1, 4]: 55

SMILES: O=C(O)CCC(=O)OCCN(CCOC(=O)CCC(=O)O)C(=O)CCC(=O)O [ligand 2-4]
calcium chelation value [1, 4]: 21

SMILES: O=C(O)CCC(=O)OCCN(CCOC(=O)CCC(=O)O)C(=O)CCC(=O)O [ligand 2-5]
calcium chelation value [1, 4]: 45

SMILES: O=C(O)CCC(=O)OCCN(CCOC(=O)CCC(=O)O)C(=O)CCC(=O)O [ligand 2-6]
calcium chelation value [1, 4]: 87

SMILES: O=C(O)CCC(=O)OCCN(CCOC(=O)CCC(=O)O)C(=O)CCC(=O)O [ligand 2-7]
calcium chelation value [1, 4]: 42

SMILES: O=C(O)CCC(=O)OCCN(CCOC(=O)CCC(=O)O)C(=O)CCC(=O)O [ligand 2-8]
calcium chelation value [1, 4]: 83

SMILES: O=C(O)CCC(=O)OCCN(CCOC(=O)CCC(=O)O)C(=O)CCC(=O)O [ligand 2-9]
calcium chelation value [1, 4]: 85

SMILES: O=C(O)CCC(=O)OCCN(CCOC(=O)CCC(=O)O)C(=O)CCC(=O)O [ligand 2]
stability constant ([2]; aluminium (Al^3+)): 11.4
stability constant ([2]; barium (Ba^2+)): 6.2
stability constant ([2]; cadmium (Cd^2+)): 7.2
stability constant ([2]; calcium (Ca^2+)): 10.1
stability constant ([2]; cobolt (Co^2+)): 7.5
stability constant ([2]; copper (Cu2+)): 10.5
stability constant ([2]; iron (Fe^2+)): 12.3
stability constant ([2]; iron (Fe^3+)): 7.5
stability constant ([2]; magnesium (Mg^2+)): 8.1
stability constant ([2]; manganese (Mn^2+)): 9.1
stability constant ([2]; mercury (Hg^2+)): 9.5
stability constant ([2]; nickel (Ni^2+)): 5.4
stability constant ([2]; strontium (Sr^2+)): 5.3
stability constant ([2]; tin (Pb^2+)): 9.9
stability constant ([2]; zinc (Zn^2+)): 7.9

calcium chelation value [1, 5]: 25
SMILES: O=C(O)c1ccccc1C(=O)OCCN(CCOC(=O)c1ccccc1C(=O)O)C(=O)c1ccccc1C(=O)O [ligand 3-1]

calcium chelation value [1, 5]: 15
SMILES: O=C(O)c1ccccc1C(=O)OCCN(CCOC(=O)c1ccccc1C(=O)O)C(=O)c1ccccc1C(=O)O [ligand 3-2]
